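Values below derive from 48-hour exposures of cells grown in 96-well plates, with endpoints linearly interpolated between the two concentrations bracketing the appropriate inhibition level. At the GI50, growth is halved. The concentration for full growth arrest is given as TGI.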
How the values were obtained:
Assay in all cases: NCI anticancer screen, dose series, 48 h
[1] = test system: NCI-H23 lung
[2] = test system: HT29 colon
[3] = test system: HOP-92 NSCLC
[4] = test system: ACHN renal
[5] = test system: RXF 393 renal
[6] = test system: HL-60(TB) leukemia
[7] = test system: NCI-H460 lung
[8] = test system: OVCAR-3 ovarian
[9] = test system: KM12 colon
[10] = test system: OVCAR-8 ovarian
[11] = test system: 786-0 renal
[12] = test system: MDA-MB-231 breast
[13] = test system: COLO 205 colon
[14] = test system: UO-31 renal
[15] = test system: MDA-MB-468 breast
[16] = test system: HCT-116 colon
[17] = test system: MOLT-4 leukemia
[18] = test system: HOP-62 NSCLC
[19] = test system: OVCAR-4 ovarian
[20] = test system: SF-295 CNS
[21] = test system: BT-549 breast
[22] = test system: CAKI-1 renal
[23] = test system: A498 renal
[24] = test system: NCI/ADR-RES ovarian
[25] = test system: TK-10 renal
[26] = test system: SK-OV-3 ovarian
[27] = test system: SF-268 CNS
[28] = test system: UACC-62 melanoma
[29] = test system: K-562 leukemia
[30] = test system: OVCAR-5 ovarian
[31] = test system: SK-MEL-28 melanoma
[32] = test system: SN12C renal
[33] = test system: SNB-19 CNS
[34] = test system: SR leukemia
[35] = test system: NCI-H522 lung
[36] = test system: A549 NSCLC
[37] = test system: SK-MEL-5 melanoma
[38] = test system: IGROV1 ovarian
[39] = test system: EKVX NSCLC
[40] = test system: DU-145 prostate
[41] = test system: PC-3 prostate
[42] = test system: CCRF-CEM leukemia
[43] = test system: M14 melanoma
[44] = test system: U251 CNS
[45] = test system: HS 578T breast
[46] = test system: UACC-257 melanoma
[47] = test system: NCI-H226 lung
[48] = test system: SNB-75 CNS
[49] = test system: SW-620 colon
[50] = test system: MCF7 breast
[51] = test system: T-47D breast
[52] = test system: MALME-3M melanoma
[53] = test system: LOX IMVI melanoma
[54] = test system: MDA-MB-435
[55] = test system: HCT-15 colon
[56] = test system: SF-539 CNS
[57] = test system: HCC-2998 colon

## CC[C@]12C=CCN3CC[C@@]4(c5ccc(OC)cc5N(C)[C@H]4[C@@](O)(C(=O)OC)[C@@H]1OC(=O)CCC[P+](c1ccc(OC)cc1)(c1ccc(OC)cc1)c1ccc(OC)cc1)[C@@H]32
[1]
  GI50: 472 nM
  TGI: 1660 nM
[2]
  GI50: 284 nM
  TGI: 859 nM
[3]
  GI50: 279 nM
  TGI: 1080 nM
[4]
  GI50: 2760 nM
  TGI: 7890 nM
[5]
  GI50: 362 nM
  TGI: 1340 nM
[6]
  GI50: 237 nM
  TGI: 800 nM
[7]
  GI50: 666 nM
  TGI: 2360 nM
[8]
  GI50: 422 nM
  TGI: 1570 nM
[9]
  GI50: 464 nM
  TGI: 1560 nM
[10]
  GI50: 1420 nM
  TGI: 3870 nM
[11]
  GI50: 1530 nM
  TGI: 3370 nM
[12]
  GI50: 254 nM
  TGI: 654 nM
[13]
  GI50: 192 nM
  TGI: 369 nM
[14]
  GI50: 3090 nM
  TGI: 15500 nM
[15]
  GI50: 166 nM
  TGI: 491 nM
[16]
  GI50: 469 nM
  TGI: 1660 nM
[17]
  GI50: 621 nM
  TGI: 2380 nM
[18]
  GI50: 1040 nM
  TGI: 2670 nM
[19]
  GI50: 537 nM
  TGI: 3440 nM
[20]
  GI50: 1250 nM
  TGI: 3030 nM
[21]
  GI50: 532 nM
  TGI: 1350 nM
[22]
  GI50: 4360 nM
  TGI: 9190 nM
[23]
  GI50: 2020 nM
  TGI: 5670 nM
[24]
  GI50: 18100 nM
  TGI: 49700 nM
[25]
  GI50: 1400 nM
  TGI: 2870 nM
[26]
  GI50: 595 nM
  TGI: 1680 nM
[27]
  GI50: 318 nM
  TGI: 1460 nM
[28]
  GI50: 396 nM
  TGI: 1170 nM
[29]
  GI50: 556 nM
  TGI: 2130 nM
[30]
  GI50: 686 nM
  TGI: 2210 nM
[31]
  GI50: 477 nM
  TGI: 1640 nM
[32]
  GI50: 458 nM
  TGI: 1510 nM
[33]
  GI50: 341 nM
  TGI: 1350 nM
[34]
  GI50: 397 nM
  TGI: 1780 nM
[35]
  GI50: 334 nM
  TGI: 1180 nM
[36]
  GI50: 591 nM
  TGI: 4390 nM
[37]
  GI50: 722 nM
  TGI: 1870 nM
[38]
  GI50: 455 nM
  TGI: 1600 nM
[39]
  GI50: 737 nM
  TGI: 3350 nM
[40]
  GI50: 635 nM
  TGI: 4340 nM
[41]
  GI50: 414 nM
  TGI: 2150 nM
[42]
  GI50: 582 nM
  TGI: 2020 nM
[43]
  GI50: 638 nM
  TGI: 1870 nM
[44]
  GI50: 360 nM
  TGI: 1370 nM
[45]
  GI50: 1180 nM
  TGI: 3970 nM
[46]
  GI50: 489 nM
  TGI: 1760 nM
[47]
  GI50: 1430 nM
  TGI: 3870 nM
[48]
  GI50: 178 nM
  TGI: 735 nM
[49]
  GI50: 557 nM
  TGI: 2050 nM
[50]
  GI50: 383 nM
  TGI: 1430 nM
[51]
  GI50: 309 nM
  TGI: 1600 nM
[52]
  GI50: 224 nM
  TGI: 536 nM
[53]
  GI50: 490 nM
  TGI: 1590 nM
[54]
  GI50: 381 nM
  TGI: 1420 nM
[55]
  GI50: 2510 nM
  TGI: 7000 nM
[56]
  GI50: 622 nM
  TGI: 1670 nM
[57]
  GI50: 446 nM
  TGI: 1570 nM

Source: PubChem BioAssay (NCI)
